# Biological target: T1, mouse GnRH receptor (Mus musculus, UniProt Q01776)
# T1 construct: expressed in transfected cells; host or cells: 293 cells
# T1 sequence (Q01776 1-327): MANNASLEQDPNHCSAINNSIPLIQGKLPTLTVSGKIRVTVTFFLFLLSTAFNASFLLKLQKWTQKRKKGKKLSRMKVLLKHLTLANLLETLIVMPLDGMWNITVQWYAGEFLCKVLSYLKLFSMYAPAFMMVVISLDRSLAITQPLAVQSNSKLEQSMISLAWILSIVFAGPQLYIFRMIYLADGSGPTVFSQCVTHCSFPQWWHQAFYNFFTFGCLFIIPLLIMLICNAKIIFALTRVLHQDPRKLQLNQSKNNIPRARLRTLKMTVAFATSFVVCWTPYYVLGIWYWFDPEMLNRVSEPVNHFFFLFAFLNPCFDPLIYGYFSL
# Assay: Radioligand binding, 125I-GnRH-A, 293 cells expressing mouse GnRH receptors
# Conditions: 10 uM; read-out: % Inhib. @ 10 uM mGnRH
# Description: All compounds were diluted in 1% DMSO (final assay concentration) in binding assay buffer. […] Reactions were terminated by rapid filtration onto 96-well Packard GF/C filters soaked in 0.1% polyethyleneimine. Filters were washed three times with PBS buffer, dried and counted on a Packard Topcount by liquid scintillation counting.
# Assay conditions were identical for assessing compound activities at other species. […] IC50 values for control peptides and test compounds were calculated utilizing GraphPad Prism™ software.
# The reaction mixture was vortexed and incubated for 1 min at room temperature. After one min, the mixture was vortexed and allowed to incubate for an additional minute. 2 ml of 0.5 M acetic acid/1% BSA was added to the reaction tube and the mixture was added to a C18 Sep-Pak cartridge. The cartridge was washed with subsequent washes of 5 ml H2O and 5 ml 0.5M acetic acid and then eluted with 5×1 ml of 60% CH3CN/40% 0.5M acetic acid. The eluate was diluted with 3× volume of HPLC buffer A (0.1% TFA in H2O) and loaded onto a C18 column. […] The radioactive fractions (750 ed/fraction) are collected into clean polypropylene tubes containing 100 μl of 10% BSA. Fractions were assessed for biological activity by radioligand binding.
row,inhibition at 10 µM [%],SMILES
1,25,Cc1cc2c(cc1Cc1ccc(C(=O)N(CCC(c3ccccc3)c3ccccc3)Cc3ccc4c(c3)OCO4)o1)C(C)(C)CCC2(C)C
2,56,Cc1cc2c(cc1Cc1ccc(C(=O)NCCNc3cccc4ccccc34)o1)C(C)(C)CCC2(C)C [drawing 1449]
3,34,Cc1cc2c(cc1Cc1ccc(C(=O)N(CCO)CCO)o1)C(C)(C)CCC2(C)C
4,14,Cc1cc2c(cc1Cc1ccc(C(=O)NCC(O)CO)o1)C(C)(C)CCC2(C)C (stereo not drawn)
5,42,Cc1cc2c(cc1Cc1ccc(C(=O)NCc3cccc(NC(=O)NC(Cc4ccccc4)c4ccccc4)c3)o1)C(C)(C)CCC2(C)C (stereo not drawn) [drawing 1570]
6,4,Cc1cc2c(cc1Cc1ccc(C(=O)N3CCN(C(c4ccccc4)c4ccc(Cl)cc4)CC3)o1)C(C)(C)CCC2(C)C (stereo not drawn)
7,100,Cc1cc2c(cc1Cc1ccc(C(=O)N(Cc3cccnc3)Cc3cccn3C)o1)C(C)(C)CCC2(C)C [drawing 1285]
8,43,Cc1cc2c(cc1Cc1ccc(C(=O)N(Cc3ccccc3Cl)C3CCN(Cc4ccccc4)CC3)o1)C(C)(C)CCC2(C)C
9,22,Cc1cc2c(cc1Cc1ccc(C(=O)NC(CO)CO)o1)C(C)(C)CCC2(C)C
10,73,Cc1cc2c(cc1Cc1ccc(C(=O)N3CCN(CCN4CCOCC4)CC3)o1)C(C)(C)CCC2(C)C
11,98,Cc1cc2c(cc1Cc1ccc(C(=O)N3CCN(CCN(C)C)CC3)o1)C(C)(C)CCC2(C)C
12,79,Cc1cc2c(cc1Cc1ccc(C(=O)N3CCN(CC(=O)N4CCCC4)CC3)o1)C(C)(C)CCC2(C)C [drawing 1432]
13,63,COc1ccccc1C1CCN(C(=O)c2ccc(Cc3cc4c(cc3C)C(C)(C)CCC4(C)C)o2)CC1
14,81,Cc1cc2c(cc1Cc1ccc(C(=O)NCCc3ccc(Cl)cc3)o1)C(C)(C)CCC2(C)C [drawing 1521]
15,75,COc1cccc(CN(Cc2cccc(Oc3cccc(C(F)(F)F)c3)c2)C(=O)c2ccc(Cc3cc4c(cc3C)C(C)(C)CCC4(C)C)o2)c1OC [drawing 1307]
16,90,Cc1cc2c(cc1Cc1ccc(C(=O)N3CC(C)CC(C)C3)o1)C(C)(C)CCC2(C)C (stereo not drawn) [drawing 1446]
17,35,Cc1cc2c(cc1Cc1ccc(C(=O)N3CCC(c4cccc(C(F)(F)F)c4)C(O)C3)o1)C(C)(C)CCC2(C)C (stereo not drawn)
18,77,Cc1cc2c(cc1Cc1ccc(C(=O)N3CCC(O)CC3)o1)C(C)(C)CCC2(C)C [drawing 1510]
19,88,Cc1cc2c(cc1Cc1ccc(C(=O)NCCC(C)C)o1)C(C)(C)CCC2(C)C

row,inhibition at 10 µM [%],SMILES
1,100,Cc1cc2c(cc1Cc1ccc(C(=O)N(CCCN3CCN(C)CC3)Cc3ccc(OCCCN(C)C)cc3)o1)C(C)(C)CCC2(C)C
2,87,Cc1cc2c(cc1Cc1ccc(C(=O)NC(CO)C(C)C)o1)C(C)(C)CCC2(C)C (stereo not drawn) [drawing 1478]
3,66,Cc1cc2c(cc1Cc1ccc(C(=O)NC(C)(C)CC(C)(C)C)o1)C(C)(C)CCC2(C)C [drawing 1577]
4,94,CCN(CCCCO)C(=O)c1ccc(Cc2cc3c(cc2C)C(C)(C)CCC3(C)C)o1
5,94,Cc1cc2c(cc1Cc1ccc(C(=O)N(CCCO)Cc3ccc(Cl)cc3Cl)o1)C(C)(C)CCC2(C)C
6,101,C#CCN(CCC)CCN1CCN(C(=O)c2ccc(Cc3cc4c(cc3C)C(C)(C)CCC4(C)C)o2)CC1
7,99,CCOC(=O)CCNC(=O)c1ccc(Cc2cc3c(cc2C)C(C)(C)CCC3(C)C)o1 [drawing 1592]
8,86,Cc1cc2c(cc1Cc1ccc(C(=O)NCC3CC3)o1)C(C)(C)CCC2(C)C
9,76,Cc1cc2c(cc1Cc1ccc(C(=O)N(CCc3ccccn3)Cc3ccccc3)o1)C(C)(C)CCC2(C)C [drawing 1459]
10,84,Cc1cc2c(cc1Cc1ccc(C(=O)N3CC(C)OC(C)C3)o1)C(C)(C)CCC2(C)C (stereo not drawn) [drawing 1426]
11,43,Cc1cc2c(cc1Cc1ccc(C(=O)N(CCC(c3ccccc3)c3ccccc3)Cc3ccco3)o1)C(C)(C)CCC2(C)C [drawing 1552]
12,28,Cc1cc2c(cc1Cc1ccc(C(=O)N3CCCCC3C[C@H]3CCCN3C)o1)C(C)(C)CCC2(C)C (stereo partly drawn)
13,51,Cc1cc2c(cc1Cc1ccc(C(=O)N(C)Cc3cccc4ccccc34)o1)C(C)(C)CCC2(C)C
14,89,Cc1cc2c(cc1Cc1ccc(C(=O)N(Cc3cccnc3)Cc3ccco3)o1)C(C)(C)CCC2(C)C [drawing 1535]
15,94,CCOC(=O)C1CCCCN1C(=O)c1ccc(Cc2cc3c(cc2C)C(C)(C)CCC3(C)C)o1 (stereo not drawn)
16,63,Cc1cc2c(cc1Cc1ccc(C(=O)N3CCN(CC(=O)NC(C)C)CC3)o1)C(C)(C)CCC2(C)C
17,52,Cc1cc2c(cc1Cc1ccc(C(=O)N3C[C@H]4CCCC[C@H]4CC3C(=O)NC(C)(C)C)o1)C(C)(C)CCC2(C)C (stereo partly drawn) [drawing 1502]
18,69,Cc1cc2c(cc1Cc1ccc(C(=O)N3CCN(CCO)CC3)o1)C(C)(C)CCC2(C)C [drawing 1429]
19,98,Cc1cc2c(cc1Cc1ccc(C(=O)NCC(C)(C)CN(C)C)o1)C(C)(C)CCC2(C)C [drawing 1507]

# Same assay, conditions: 1 h, substrate remaining; 10 uM compound; closer to zero = closer to 100% inhibition; read-out: S%R 10 uM mGnRHR
row,remaining activity at 10 µM [%],SMILES
1,56,Cc1cc2c(cc1Cc1ccc(C(=O)NCc3cccc4c3OC3C=CC=CC43)o1)C(C)(C)CCC2(C)C (stereo not drawn) [Compound 518]
2,51,Cc1cc2c(cc1Cc1ccc(C(=O)N(CCC(c3ccccc3)c3ccccc3)Cc3ccccn3)o1)C(C)(C)CCC2(C)C [Compound 645]
3,5,Cc1cc2c(cc1Cc1ccc(C(=O)NC3CCCCC3Nc3ccnc(NCC4CCCO4)n3)o1)C(C)(C)CCC2(C)C (stereo not drawn) [Compound 481]
4,-1,Cc1cc2c(cc1Cc1ccc(C(=O)NCc3ccc4c(c3)OCO4)o1)C(C)(C)CCC2(C)C [Compound 484]
5,35,COc1cc(OC)cc(N2CCN(C(=O)c3ccc(Cc4cc5c(cc4C)C(C)(C)CCC5(C)C)o3)CC2)c1 [Compound 647]
6,-3,Cc1cc2c(cc1Cc1ccc(C(=O)NCCN3CCCCC3)o1)C(C)(C)CCC2(C)C [Compound 488]
7,4,Cc1cc2c(cc1Cc1ccc(C(=O)NC3CCCCC3O)o1)C(C)(C)CCC2(C)C (stereo not drawn) [Compound 650]
8,32,Cc1cc2c(cc1Cc1ccc(C(=O)N3CCN(CCO)CC3)o1)C(C)(C)CCC2(C)C [Compound 537]
9,17,C=CCN(CC=C)C(=O)c1ccc(Cc2cc3c(cc2C)C(C)(C)CCC3(C)C)o1 [Compound 538]
10,15,Cc1cc2c(cc1Cc1ccc(C(=O)N(C)CC3OCCO3)o1)C(C)(C)CCC2(C)C [Compound 576]
11,-2,COC(CNC(=O)c1ccc(Cc2cc3c(cc2C)C(C)(C)CCC3(C)C)o1)OC [Compound 607]
12,53,Cc1cc2c(cc1Cc1ccc(C(=O)NCCc3ccc(S(N)(=O)=O)cc3)o1)C(C)(C)CCC2(C)C [Compound 461]
13,21,Cc1cc2c(cc1Cc1ccc(C(=O)N(Cc3cccnc3)Cc3cccc(C(F)(F)F)c3)o1)C(C)(C)CCC2(C)C [Compound 551]
14,17,Cc1cc2c(cc1Cc1ccc(C(=O)NCC(C)(C)CO)o1)C(C)(C)CCC2(C)C [Compound 601]
15,13,Cc1cc2c(cc1Cc1ccc(C(=O)NC(CO)C(C)C)o1)C(C)(C)CCC2(C)C (stereo not drawn) [Compound 574]
16,-3,Cc1cc2c(cc1Cc1ccc(C(=O)NCCc3ccc(N)cc3)o1)C(C)(C)CCC2(C)C [Compound 503]
17,5,Cc1cc2c(cc1Cc1ccc(C(=O)N(Cc3cccnc3)Cc3ccccc3F)o1)C(C)(C)CCC2(C)C [Compound 703]
18,55,Cc1cc2c(cc1Cc1ccc(C(=O)N(Cc3ccccc3)[C@@H](C)c3ccccc3)o1)C(C)(C)CCC2(C)C [Compound 637]
19,32,Cc1cc2c(cc1Cc1ccc(C(=O)N(Cc3ccco3)C3CC(=O)N(C)C3=O)o1)C(C)(C)CCC2(C)C (stereo not drawn) [Compound 606]
20,10,Cc1cc2c(cc1Cc1ccc(C(=O)NCC(C)O)o1)C(C)(C)CCC2(C)C (stereo not drawn) [Compound 556]
21,23,Cc1cc2c(cc1Cc1ccc(C(=O)N(CCC#N)CCC#N)o1)C(C)(C)CCC2(C)C [Compound 672]
22,29,Cc1cc2c(cc1Cc1ccc(C(=O)NCCNCCNc3ccccc3)o1)C(C)(C)CCC2(C)C [Compound 458]
23,21,Cc1cc2c(cc1Cc1ccc(C(=O)NCc3ccccc3C(F)(F)F)o1)C(C)(C)CCC2(C)C [Compound 516]
24,27,COc1ccccc1N1CCN(C(=O)c2ccc(Cc3cc4c(cc3C)C(C)(C)CCC4(C)C)o2)CC1 [Compound 554]
25,12,Cc1cc2c(cc1Cc1ccc(C(=O)NCCC(C)O)o1)C(C)(C)CCC2(C)C (stereo not drawn) [Compound 671]
